# Reference: patent publication US20010046498A1, “Chimeric prostate-homing peptides with pro-apoptotic activity” (priority 2000, published 2001)
# Read-outs that look alike come from different tables or passages of the source. Bridge positions count the residues as written; N and C are the ends. Square brackets hold non-standard residues; d marks the D form. Peptide text beside a SMILES is read from it.
# Tests used:
# [1] = test system: normal human dermal microvessel endothelial cells (DMECs); format: cell-based; design: dose or concentration left out as unconfirmed; details: proliferation or cord formation
# [2] = test system: tumors derived from the human melanoma cell line C8161; experiment: Treatment of nude mice bearing C8161 melanoma xenografts; format: in vivo; details: similar experiments
# Description: (§1) The activity of HPP-1 was tested in vivo using nude mice bearing human MDA-MD-435 breast carcinoma xenografts as follows. Briefly, MDA-MB-435 and C8161-derived tumor xenografts were established in 2 month-old female nude mice (Jackson Labs; Bar Harbor, Me.) as described in Arap et al., supra, 1998. After mice were anesthetized with a mixture of 2,2,2-tribromoethanol (Aldrich; Milwaukee, Wis.) and 2-methyl-butanol (Aldrich) prepared in distilled water, peptides were administered intravenously through the tail vein at a dose of 250 μg/week/mouse given slowly in a volume of 200 μl. Three-dimensional measurements of tumors were taken by caliper under anesthesia and used to calculate tumor volume (Pasqualini et al., supra, 1996).
# [3] = test system: normal human dermal microvessel endothelial cells (DMECs); experiment: in vitro; format: cell-based; details: for CC50: scored at 72 hours
# Description: (§2) The effect of HPP-1 was assayed on normal human dermal microvessel endothelial cells (DMECs) under the angiogenic conditions of proliferation and cord formation. In addition, the effect of HPP-1 was assayed under the angiostatic condition of a monolayer maintained at 100% confluency (as described below).
# (§3) Briefly, dermal microvessel endothelial cells (DMECs) were grown in CADMEC Growth Media™ (Cell Applications, Inc.; San Diego, Calif.). Dermal microvessel endothelial cells were then cultured under three experimental conditions: proliferation, 30% confluency in a growth media supplemented with 500 ng/ml human recombinant vascular endothelial growth factor (VEGF; Pharmingen); no proliferation, 100% confluency in media formulated to maintain a monolayer; and cord formation, 60% confluency (required for induction) in media formulated to induce cord formation. The KS1767 and MDA-MB-435 cells were cultured as described in Arap et al., supra, 1998; Hernier et al., supra, 1994).
# (§4) Percent viability and LC50 (Table 1) were determined by apoptotic morphology as described in Ellerby et al., J. Neurosci. 17:6165-6178 (1997). For the percent viability assays, dermal microvessel endothelial cells were treated with 60 μM HPP-1 or control peptide D(KLAKLAK)2. At the indicated time points, cell culture medium was aspirated from adherent cells, and the cells were gently washed once with PBS at 37° C. Subsequently, a 20-fold dilution of the dye mixture (100 μg/ml acridine orange and 100 μg/ml ethidium bromide) in PBS was gently pipetted on the cells, which were viewed on an inverted microscope (Nikon TE 300). […] At least 500 cells were scored for a given time point in each experiment. Percent viability was calculated relative to untreated controls. The LC50 for monolayer, proliferation ([…]), and cord formation were scored at 72 hours.
# [4] = in vitro; format: cell-based; details: human; monolayer at 100% confluency; scored at 72 hours; means of three independent experiments; read-out: LC50 DMEC Angiostatic
# Description: as §2, §3, §4
# [5] = test system: caspase activation in dermal microvessel endothelial cells; experiment: Caspase activity (DEVD-pNA hydrolysis) in DMEC lysates; format: cell-based, human; details: proliferating DMECs
# Description: Characteristic caspase-3 processing was measured in dermal microvessel endothelial cell lysates as described in Ellerby et al., supra, 1997. Briefly, aliquots of cell lysates (1 μl lysate, 8-15 mg/ml) were added to 100 μM N-acetyl-Asp-Glu-Val-Asp-pNA (DEVD-pNA; BioMol; 100 μl, 100 mM HEPES, 10% sucrose, 0.1% CHAPS, 1 mM DTT, pH 7.0). Hydrolysis of DEVD-PNA was monitored spectrophotometrically (400 nm) at 25° C.
# [6] = test system: dermal microvessel endothelial cells; experiment: Mitochondrial morphology of proliferating DMECs (MitoTracker Red / DAPI); format: cell-based, human; details: 60 μM peptide
# Description: Mitochondrial morphology of dermal microvessel endothelial cells was assessed in proliferating cells after treatment with 60 μM HPP-1, […]-GG-D(KLAKLAK)2 or untargeted D(KLAKLAK)2 as follows. Dermal microvessel endothelial cells were stained after 24 and 72 hours treatment with peptide by incubation for 30 min at 37° C. with 100 nM mitochondrial stain MitoTracker Red™ (Molecular Probes, Inc., Eugene Oreg.) and 500 nM of the nuclear stain DAPI (Molecular Probes, Inc.). Mitochondria were subsequently visualized using fluorescence microscopy (100×) under an inverted microscope using a triple wavelength filter set (Nikon).
# [7] = test system: KS1767 cells; experiment: LC50 for KS1767 cells scored by apoptotic morphology; format: cell-based; details: proliferating KS1767 cells; read-out: LC50 KS1767 Prolif.
# Description: as §3
# as §4, with “C.” for “C. Subsequently, a 20-fold dilution of the dye mixture (100 μg/ml acridine orange and 100 μg/ml ethidium bromide) in PBS was gently pipetted on the cells, which were viewed on an inverted microscope (Nikon TE 300).”
# [8] = test system: human MDA-MD-435 breast carcinoma xenografts; experiment: Treatment of nude mice bearing breast carcinoma xenografts; format: in vivo
# Description: as §1
# [9] = test system: MDA-MB-435 human breast carcinoma cells; experiment: LC50 for MDA-MB-435 cells scored by apoptotic morphology; format: cell-based
# Description: as §3
# as §4, with “C.” for “C. Subsequently, a 20-fold dilution of the dye mixture (100 μg/ml acridine orange and 100 μg/ml ethidium bromide) in PBS was gently pipetted on the cells, which were viewed on an inverted microscope (Nikon TE 300).”
# [10] = test system: tumor; experiment: Competition of GSL phage homing by free peptide; design: species or system mice; details: mouse, in vivo
# Text: A third motif, GSL (glycine-serine-leucine), also was identified following in vivo panning in mice bearing breast carcinoma, malignant melanoma or Kaposi's sarcoma. Homing of phage expressing the GSL peptide, CGSLVRC (SEQ ID NO: 5), was inhibited by coadministration of the free CGSLVRC (SEQ ID NO: 5) peptide. Like the RGD and NGR peptides, phage expressing GSL peptides also bound to blood vessels of tumors. In view of the identification of the conserved RGD, NGR and GSL motifs present in tumor homing peptides, as disclosed herein, it will be recognized that peptides containing such motifs can be useful as tumor homing peptides and, in particular, for forming homing pro-apoptotic conjugates that can selectively deliver an […] peptide to a tumor.
# [11] = 250 μg/week/mouse intravenously
Compound,percent viability with time relative to untreated controls [1],effect against C8161 melanoma tumors [2],LC50 for proliferating or migrating DMECs relative to LC50 for angiostatic DMECs ([3]; angiogenic versus angiostatic conditions),"CC50 ([3]; cord formation, read-out: LC50 DMEC Angiogenic Cord Form)","CC50 ([3]; proliferation with VEGF, read-out: LC50 DMEC Angiogenic Prolif.)",CC50 at 72 h [4],apoptotic cell death by caspase activity [5],morphological indicators of apoptosis (nuclear condensation and fragmentation) ([6]; 72 hours),"cells with altered mitochondrial morphology ([6]; proliferating cells, before the cells rounded-up)",CC50 [7],"histopathological analysis of tumors [8, 11]","survival versus control groups [8, 11]","tumor volume versus controls [8, 11]",apoptotic cell death in tumors ([8]; histopathological analysis),toxicity to MDA-MB-435 cells relative to KS1767 cells and angiogenic DMECs [9],"CC50 ([9]; proliferating MDA-MB-435 cells, read-out: LC50 MDA-MB-435 Prolif.)",effect of coadministered free peptide on homing of CGSLVRC phage [10]
"CC(C)C[C@@H](NC(=O)[C@@H](CCCCN)NC(=O)CNC(=O)CNC(=O)[C@@H]1CSSC[C@H](N)C(=O)N[C@@H](CC(N)=O)C(=O)NCC(=O)N[C@@H](CCCNC(=N)N)C(=O)N1)C(=O)N[C@H](C)C(=O)N[C@H](CCCCN)C(=O)N[C@H](CC(C)C)C(=O)N[C@H](C)C(=O)N[C@H](CCCCN)C(=O)N[C@H](CCCCN)C(=O)N[C@H](CC(C)C)C(=O)N[C@H](C)C(=O)N[C@H](CCCCN)C(=O)N[C@H](CC(C)C)C(=O)N[C@H](C)C(=O)N[C@H](CCCCN)C(=O)O [HPP-1, CNGRC-GG-D(KLAKLAK)2] (H-CNGRCGG[dK][dL][dA][dK][dL][dA][dK][dK][dL][dA][dK][dL][dA][dK]-OH; disulfide 1-5)",decrease in percent viability with time,effective,an order of magnitude lower,34 µM,51 µM,481 µM,Apoptotic cell death was confirmed,exhibited the classic morphological indicators of apoptosis,approximately 80%,42 µM,pronounced destruction of tumor architecture and widespread cell death,survival was longer,"smaller, on average by one order of magnitude",about 50%,less toxic to MDA-MB-435 human breast carcinoma cells by approximately one order of magnitude,415 µM,–
CGSLVRC [GSL tumor homing peptide],–,–,–,–,–,–,–,–,–,–,–,–,–,–,–,–,inhibited
